The source of these data is PubChem BioAssay (NCI).

Where “and” joins values, the source holds several entries; their conditions need not be identical. Identical values can stand only once.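 In this assay, cells in 96-well plates receive the compound at five concentrations for 48 hours. Endpoints are linearly interpolated between the surrounding concentrations. Abbreviation: GI50, concentration required for 50% inhibition of growth. TGI denotes the concentration required for complete inhibition of growth.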

For one assay, the system named is HCC-2998 colon. Kind of assay: inhibition of tumour cell growth, NCI panel, 48 h.
For `Clc1ccc([O][In]([O]c2ccc(Cl)cn2)[O]c2ccc(Cl)cn2)nc1`, the GI50 is more than 100 µM and the TGI was more than 100 µM.
With `Fc1cccc(Cl)c1C1SCc2nc3ccccc3n21` (configuration not stated), the TGI was more than 100 µM.
As for `COc1cc2nncc(Sc3cnnc4ccccc34)c2cc1OC`, the TGI was 32.9 µM.
For `COC(=O)C1=CCON(c2ccccc2)C1c1ccccc1` (configuration not stated), the TGI is more than 100 µM.
`CC(=O)N(CCN)CCN` had a TGI of more than 10 µM.
In turn, `Cc1cc(O)c2c(c1)C(O)(c1ccc3c(c1O)C(=O)c1c(O)cc(C)cc1C3(O)C1OC(CO)C(O)C(O)C1O)c1cccc(O)c1C2=O` (configuration not stated) had a TGI of 29.5 µM.
`COC(=O)c1nc(NN)[nH]c(=O)c1CCCCCc1c(C(=O)OC)[nH]c(NN)cc1=O`: the TGI was more than 100 µM.
`CC1(C)C(=O)C(O)=CC2C1=CCC1C2(C)C(=O)CC2(C)C(C(C)(O)C(=O)CC(O)C(C)(C)O)C(O)CC12C` (configuration not stated) registered a TGI of 14 µM.
Still for that read-out and setting: to `CCc1ccccc1NC(=O)C(=O)C(C(=O)c1ccc(OC)cc1)c1ccc(OC)cc1` (configuration not stated) belongs more than 100 µM.
`C/C(=N/N(C=O)C[n+]1ccccc1)C(CN(CC(C)C)CC(C)C)C(=O)Nc1ccc(C)cc1C` (configuration not stated) returned a TGI of more than 100 µM.
On to `COc1cc(C2c3cc4c(cc3[C@@H](Nc3ccc(N(C)C)cc3)[C@H]3COC(=O)C23)OCO4)cc(OC)c1O` (some centres not stated), for which the GI50 is 2.36 µM; the TGI is 3.89 µM and 8.71 µM.
`O=c1nc(-c2ccccc2)c2c3c(cccn13)CCC2`: the TGI was more than 100 µM.
Same read-out and setting: to `COc1ccc([C@H]2CC(=O)N3CCCC3N2)cc1` (some centres not stated) belongs more than 100 µM; to `O=C(c1ccccc1)c1c(CC(O)c2cccnc2)n(C(=O)c2ccccc2)c2ccccc12` (configuration not stated), 35 µM; to `C=C(C)C1CC2C(C)=C(OC(C)=O)C1n1c(=O)c3cc4ccccc4cc3c(=O)n12` (configuration not stated), more than 100 µM.
Regarding `COc1cc(Nc2ccnc(N3CCN(c4ccnc5cc(Cl)ccc45)CC3)n2)cc(OC)c1`, the GI50 was 2.8 µM and the TGI is more than 100 µM.
In turn, `O=C(CCc1nc(=S)[nH][nH]1)NC12CC3CC(CC(C3)C1)C2` returned a TGI of more than 100 µM.
Still for that read-out and setting: next, `CC(C)N(C(=O)C12C3C4C1C1C2C3C41C(O)C(C)(C)C)C(C)C` (configuration not stated): more than 50 µM.

The test system of another assay is HL-60(TB) leukemia. Kind of assay: inhibition of tumour cell growth, NCI panel, 48 h.
With `O=C1c2ccccc2N2OC3(N4CCCC4)CCCC3C12c1ccccc1` (configuration not stated), the TGI is more than 100 µM.
Same read-out and setting: next, `COc1ccc(C2C(Cl)C(=O)N2n2cnc3ccccc3c2=O)cc1OC` (configuration not stated): more than 100 µM.
The same measure, in the same setting: next, `Nc1nc2c(ncn2Cc2ccccc2CCO)c(=O)[nH]1`: more than 100 µM; `CC[N+]1(C)CCC(O)(c2ccc(C)cc2)C(C(=O)c2ccc(C)cc2)C1` (configuration not stated): more than 100 µM.
The same measure, in the same setting: to `CCC1(Br)C(=O)NC(=O)N(C2CC(O)C(CO)O2)C1N=[N+]=[N-]` (configuration not stated) belongs more than 100 µM; to `N=C(N)SCc1cn2ccccc2n1`, more than 100 µM.
On to `Fc1cccc(Cl)c1C1SCc2nc3ccccc3n21` (configuration not stated), for which the TGI is 33.2 µM.
Still for that read-out and setting: next, `COc1cc2nncc(Sc3cnnc4ccccc34)c2cc1OC`: 70.5 µM.
In the case of `COC(=O)C1=CCON(c2ccccc2)C1c1ccccc1` (configuration not stated), the TGI is 61.7 µM.
`Nc1cc(N)c2nc(-c3ccccc3)c(Oc3ccc(F)cc3)nc2c1`: the GI50 is 18.5 µM and the TGI was determined as 64.8 µM.
Molecule `CC(=O)N(CCN)CCN` returned a TGI of more than 10 µM.
`Cc1cc(O)c2c(c1)C(O)(c1ccc3c(c1O)C(=O)c1c(O)cc(C)cc1C3(O)C1OC(CO)C(O)C(O)C1O)c1cccc(O)c1C2=O` (configuration not stated) gave a TGI of 46.8 µM.
Molecule `COC(=O)c1nc(NN)[nH]c(=O)c1CCCCCc1c(C(=O)OC)[nH]c(NN)cc1=O` came in with a TGI of more than 100 µM.
Molecule `CC1(C)C(=O)C(O)=CC2C1=CCC1C2(C)C(=O)CC2(C)C(C(C)(O)C(=O)CC(O)C(C)(C)O)C(O)CC12C` (configuration not stated) showed a TGI of 11.6 µM.
Same read-out and setting: next, `CCc1ccccc1NC(=O)C(=O)C(C(=O)c1ccc(OC)cc1)c1ccc(OC)cc1` (configuration not stated): more than 100 µM; `C/C(=N/N(C=O)C[n+]1ccccc1)C(CN(CC(C)C)CC(C)C)C(=O)Nc1ccc(C)cc1C` (configuration not stated): more than 100 µM; `COc1cc(C2c3cc4c(cc3[C@@H](Nc3ccc(N(C)C)cc3)[C@H]3COC(=O)C23)OCO4)cc(OC)c1O` (some centres not stated): 2.51 µM.
Turning to `O=c1nc(-c2ccccc2)c2c3c(cccn13)CCC2`, the TGI was more than 100 µM.
Same read-out and setting: to `COc1ccc([C@H]2CC(=O)N3CCCC3N2)cc1` (some centres not stated) belongs more than 100 µM; to `O=C(c1ccccc1)c1c(CC(O)c2cccnc2)n(C(=O)c2ccccc2)c2ccccc12` (configuration not stated), 49 µM; to `C=C(C)C1CC2C(C)=C(OC(C)=O)C1n1c(=O)c3cc4ccccc4cc3c(=O)n12` (configuration not stated), more than 36 µM.
Turning to `COc1cc(Nc2ccnc(N3CCN(c4ccnc5cc(Cl)ccc45)CC3)n2)cc(OC)c1`, the GI50 was 2.58 µM and the TGI is more than 100 µM.
With `O=C(CCc1nc(=S)[nH][nH]1)NC12CC3CC(CC(C3)C1)C2`, the TGI was more than 100 µM.
Still for that read-out and setting: next, `COc1ccc(C(C2=C(C)C(=O)c3ccccc3C2=O)c2ccc(C(C)C)cc(=O)c2O)cc1` (configuration not stated): 10.6 µM; `CC(C)N(C(=O)C12C3C4C1C1C2C3C41C(O)C(C)(C)C)C(C)C` (configuration not stated): more than 50 µM.

The subject of the next assay is NCI-H460 lung. Kind of assay: inhibition of tumour cell growth, NCI panel, 48 h.
`COc1ccc(C2C(Cl)C(=O)N2n2cnc3ccccc3c2=O)cc1OC` (configuration not stated) showed a TGI of more than 100 µM.
Regarding `Nc1nc2c(ncn2Cc2ccccc2CCO)c(=O)[nH]1`, the TGI was more than 100 µM.
On to `CC[N+]1(C)CCC(O)(c2ccc(C)cc2)C(C(=O)c2ccc(C)cc2)C1` (configuration not stated), for which the TGI is more than 100 µM.
The same measure, in the same setting: next, `CCC1(Br)C(=O)NC(=O)N(C2CC(O)C(CO)O2)C1N=[N+]=[N-]` (configuration not stated): more than 100 µM; `O=[N+]([O-])c1ccc(N=Nc2c(O)[nH]c3ccc([N+](=O)[O-])cc23)cc1`: 26.4 µM; `CC12CC3(C)CC(C)(C1)CC(N=[N+]=[N-])(C2)C3`: more than 100 µM.
Still for that read-out and setting: next, `N=C(N)SCc1cn2ccccc2n1`: more than 100 µM.
Regarding `Clc1ccc([O][In]([O]c2ccc(Cl)cn2)[O]c2ccc(Cl)cn2)nc1`, the GI50 was more than 100 µM and the TGI is more than 100 µM.
In the case of `Fc1cccc(Cl)c1C1SCc2nc3ccccc3n21` (configuration not stated), the TGI is more than 100 µM.
With `COc1cc2nncc(Sc3cnnc4ccccc34)c2cc1OC`, the TGI worked out at 50.4 µM.
In turn, `COC(=O)C1=CCON(c2ccccc2)C1c1ccccc1` (configuration not stated) came in with a TGI of more than 100 µM.
Take `Nc1cc(N)c2nc(-c3ccccc3)c(Oc3ccc(F)cc3)nc2c1`: the GI50 is 39.6 µM and the TGI was more than 100 µM.
On to `CC(=O)N(CCN)CCN`, for which the TGI is more than 10 µM.
For the molecule `Cc1cc(O)c2c(c1)C(O)(c1ccc3c(c1O)C(=O)c1c(O)cc(C)cc1C3(O)C1OC(CO)C(O)C(O)C1O)c1cccc(O)c1C2=O` (configuration not stated), the TGI turned out to be 27.9 µM.
For the molecule `COC(=O)c1nc(NN)[nH]c(=O)c1CCCCCc1c(C(=O)OC)[nH]c(NN)cc1=O`, the TGI was more than 100 µM.
With `CC1(C)C(=O)C(O)=CC2C1=CCC1C2(C)C(=O)CC2(C)C(C(C)(O)C(=O)CC(O)C(C)(C)O)C(O)CC12C` (configuration not stated), the TGI came out at 56.5 µM.
Same read-out and setting: to `CCc1ccccc1NC(=O)C(=O)C(C(=O)c1ccc(OC)cc1)c1ccc(OC)cc1` (configuration not stated) belongs more than 100 µM.
